The values below come from patent publication US20030100997A1, “Matrix assays in genomically indexed cells” (priority 2001, published 2003).

What all share (format): cell-based
One assay relates to NCI-H460. Nature of the assay: calcium mobilization (FLIPR, Fluo-3) in NCI-H460. On the procedure: (§1) The above panel of 10 cell lines was plated in 96-well black, clear-bottomed tissue culture-treated plates (Molecular Devices, Sunnyvale, Calif. with the number of cells per well indicated in Table 1. Cells were maintained overnight at 37° C., 5%CO2 in a humidified incubator. Media was removed and the cells were then incubated in Hanks balanced salt solution (Invitrogen, Carlsbad Calif.)/10 mM HEPES pH 7.4 containing 0.04% Pluronic Acid (Molecular Probes, Eugene Oreg.) and 4 uM Fluor-3AM (Molecular Probes, Eugene Oreg.) for one hour at 37° C.
(§2) Antagonists were added to the indicated concentration and the cells incubated at room temperature for 20 minutes. After 10 seconds of baseline read collection, agonists were added on a FLIPR instrument (Molecular Devices, Sunnyvale, Calif.) and data were collected for a total of 3.5 minutes. The fluorescence emission was normalized to initial intensity and the sum of the signal over the entire time period was exported and used for determining percent of control responses using the following formula: Percent of Control=(Sample-unstimulated cells)/(ionomycin treated cells-unstimulated cells). […] Calcium mobilization was measured as described above. […]
(In general: Calcium flux is commonly read through the fluorescence of an indicator in the cells.)

The test system of a further assay is SaOS-2. As to the kind of experiment: calcium mobilization (FLIPR, Fluo-3) in SaOS-2. The following applies: for calcium mobilization, Percent of Control: SaOS-2; for effect on responses to bradykinin in SaOS-2 cells: antagonist at 10 uM. On the procedure:
as §1, §2

The next assay relates to PANC-1. Nature of the assay: calcium mobilization (FLIPR, Fluo-3) in PANC-1. The protocol: as §1, §2
The test system of the next assay is PC-3. Nature of the assay: calcium mobilization (FLIPR, Fluo-3) in PC-3. The protocol: as §1, §2
The subject of the next assay is NTera-2. As to the kind of experiment: calcium mobilization (FLIPR, Fluo-3) in NTera-2. The following applies: for calcium mobilization, Percent of Control: NTera-2; for effect on the response to ionomycin in NTera-2 cells: antagonist at 10 uM, cells do not express the H1 receptor. On the procedure: as §1, §2
The next assay has as its system HBL-100. As to the kind of experiment: calcium mobilization (FLIPR, Fluo-3) in HBL-100. The following applies: for calcium mobilization, Percent of Control: HBL-100; for effect on responses to bradykinin in HBL-100 cells: antagonist at 10 uM. On the procedure:
as §1, §2

Another assay deals with SK-Hep-1. As to the kind of experiment: calcium mobilization (FLIPR, Fluo-3) in SK-Hep-1. The following applies: agonist alone (buffer), 10 uM, 100 = 10 uM ionomycin. The protocol:
as §1
(§3) Antagonists were added to the indicated concentration and the cells incubated at room temperature for 20 minutes. After 10 seconds of baseline read collection, agonists were added on a FLIPR instrument (Molecular Devices, Sunnyvale, Calif.) and data were collected for a total of 3.5 minutes. The fluorescence emission was normalized to initial intensity and the sum of the signal over the entire time period was exported and used for determining percent of control responses using the following formula: Percent of Control=(Sample-unstimulated cells)/(ionomycin treated cells-unstimulated cells). […] Calcium mobilization was measured as described above.

The subject of another assay is panel of 10 cell lines. Nature of the assay: calcium mobilization profile across the panel of 10 cell lines. Particulars: for effect on calcium responses to histamine: histamine-induced calcium mobilization, panel of 10 cell lines, antagonist 1 or 10 uM. On the procedure: as §1, §3
(§4) Expression of the target H1 receptor was measured by RT-PCR of mRNA samples from each cell line, as follows.

The next assay relates to T-47D. As to the kind of experiment: calcium mobilization (FLIPR, Fluo-3) in T-47D. The following applies: for calcium mobilization, Percent of Control: T-47D; for effect on the response to ionomycin in T-47D cells: antagonist at 10 uM, cells do not express the H1 receptor. On the procedure: as §1, §3, §4
Another assay has as its system Jurkat. As to the kind of experiment: calcium mobilization (FLIPR, Fluo-3) in Jurkat. On the procedure: as §1, §2
Another assay relates to COLO320. As to the kind of experiment: calcium mobilization (FLIPR, Fluo-3) in COLO320. On the procedure:
as §1, §3, §4

Where [1] appears, read: agonist alone (buffer), 10 uM, 100 = 10 uM ionomycin.
[2] abbreviates: response to 10 uM ionomycin after antagonist 10 uM.
Setting [3] is: response to 1 uM bradykinin after antagonist 10 uM.
[4] abbreviates: response to 10 uM histamine after antagonist 10 uM, 20 min.

SMILES strings stand for the structures. Where “and” joins values, the source holds several entries; their conditions need not be identical. Equal values may be shown once.

As to `NCCc1c[nH]cn1` [histamine], the “calcium mobilization, Percent of Control” value is 32% of Control and 24% of Control in the assay on NCI-H460 (setting [1]); 13% of Control and 18% of Control in the assay with SaOS-2 (setting [1]); 26% of Control and 30% of Control with PANC-1 (setting [1]); 1% of Control in the assay with PC-3 (setting [1]); 0% of Control with NTera-2 (setting [1]); 18% of Control and 27% of Control in the assay with HBL-100 (setting [1]). Also, the “calcium mobilization, Percent of Control” value in the assay on SK-Hep-1 was 19% of Control. In addition, in the assay on panel of 10 cell lines (agonist example, 10 uM), the “activity in cells that do not express the H1 receptor target” value is “Neither Compound 1 nor histamine were active”.
For `C[C@@H](N)Cc1c[nH]cn1` [R-a-his, R-alphamethyl histamine], the “calcium mobilization, Percent of Control” value is listed as 0% of Control in the assay with T-47D (setting [1]); 0% of Control in the assay on NCI-H460 (setting [1]); 0% of Control in the assay with SaOS-2 (setting [1]); 0% of Control in the assay with PANC-1 (setting [1]); 0% of Control in the assay with PC-3 (setting [1]); 2% of Control with NTera-2 (setting [1]). For the same molecule, the “calcium mobilization, Percent of Control” value was 2% of Control in the assay with Jurkat (setting [1]), 1% of Control in the assay on COLO320 (setting [1]), −1% of Control with HBL-100 (setting [1]) and −1% of Control with SK-Hep-1. Also, the “pattern of calcium responses compared with histamine and bradykinin” value in the assay on panel of 10 cell lines (agonist example, 10 uM, 10 cell lines) is on record as “resembles neither bradykinin nor histamine”.
Take `CNCCc1cnc[nH]1` [N-a-his, N-alphamethyl histamine]: the “calcium mobilization, Percent of Control” value was 0% of Control in the assay on T-47D (setting [1]); 30% of Control in the assay on NCI-H460 (setting [1]); 11% of Control in the assay on SaOS-2 (setting [1]); 22% of Control in the assay on PANC-1 (setting [1]); 1% of Control in the assay on PC-3 (setting [1]); 2% of Control in the assay on NTera-2 (setting [1]). For the same molecule, the “calcium mobilization, Percent of Control” value in the assay on Jurkat (setting [1]) is 2% of Control; in the assay with COLO320 (setting [1]), 1% of Control; in the assay with HBL-100 (setting [1]), 16% of Control; in the assay on SK-Hep-1 it was 12% of Control. For the same molecule, in the assay on panel of 10 cell lines (agonist example, 10 uM), the “activity in cells that do not express the H1 receptor target” value is on record as “Neither Compound 1 nor histamine were active”.
In the case of `C[C@H](CCC(=O)O)C[C@H](C)C[C@H](C)C(=O)/C=C(\O)[C@H](C)C[C@H](C)C/C=C/[C@@H](C)[C@@H](O)[C@@H](C)[C@@H](O)C[C@@H]1CC[C@@](C)([C@H]2CC[C@@](C)([C@@H](C)O)O2)O1` [ionomycin], the “calcium mobilization, Percent of Control” value in the assay with T-47D (setting [1]), with NCI-H460 (setting [1]), with SaOS-2 (setting [1]), in the assay with PANC-1 (setting [1]), in the assay on PC-3 (setting [1]) and in the assay with NTera-2 (setting [1]) was 100% of Control throughout. In addition, the “calcium mobilization, Percent of Control” value in the assay with Jurkat (setting [1]), in the assay on COLO320 (setting [1]), with HBL-100 (setting [1]) and in the assay on SK-Hep-1 was 100% of Control throughout.
Turning to `CN(C)CCC(c1ccc(Cl)cc1)c1ccccn1` (stereo not shown) [Compound C1PhAm, chlorpheniramine], the “calcium mobilization, Percent of Control” value with T-47D (setting [2]) is 102% of Control; in the assay on NCI-H460 (setting [2]), 73% of Control and 96% of Control; in the assay on SaOS-2 (setting [3]), 29% of Control and 23% of Control; in the assay with SaOS-2 (setting [2]) it was 96% of Control and 112% of Control; in the assay with PANC-1 (setting [2]), 101% of Control and 104% of Control; in the assay on PC-3 (setting [3]), 0% of Control. The “calcium mobilization, Percent of Control” value in the assay on PC-3 (setting [4]) was 0% of Control; with PC-3 (setting [2]), 104% of Control; in the assay with NTera-2 (setting [4]) it was 0% of Control; in the assay with NTera-2 (setting [2]) it was 99% of Control and 119% of Control; in the assay on Jurkat (setting [3]), 12% of Control and 10% of Control; in the assay on Jurkat (setting [4]), 8% of Control and 5% of Control. For the same molecule, the “calcium mobilization, Percent of Control” value with Jurkat (setting [2]) is 70% of Control and 123% of Control; in the assay on COLO320 (setting [3]) it was 0% of Control; with COLO320 (setting [2]) it was 98% of Control and 95% of Control; in the assay on HBL-100 (setting [3]) it was 11% of Control; in the assay with HBL-100 (setting [4]), 0% of Control; in the assay on HBL-100 (setting [2]) it was 87% of Control. For the same molecule, the “effect on the response to ionomycin in T-47D cells” value with T-47D was “does not affect the ionomycin response”. For the same molecule, the “effect on responses to bradykinin in SaOS-2 cells” value in the assay with SaOS-2 is given as “does not”. Also, the “effect on the response to ionomycin in NTera-2 cells” value in the assay with NTera-2 is “does not affect the ionomycin response”. Besides, the “effect on responses to bradykinin in HBL-100 cells” value in the assay on HBL-100 was “does not”. The “effect on calcium responses to bradykinin” value in the assay on panel of 10 cell lines (bradykinin-induced, antagonist at 10 uM) is reported as “did not inhibit bradykinin responses”. Besides, the “effect on calcium responses to histamine” value in the assay on panel of 10 cell lines is on record as “had similar effects to Compound 1”.
As to `COc1ccc2c(c1)CC[C@@H]1[C@@H]2CC[C@]2(C)[C@@H](NCCCCCCN3C(=O)C=CC3=O)CC[C@@H]12` [Compound U73122, U73122], the “calcium mobilization, Percent of Control” value in the assay on T-47D (setting [3]) is 1% of Control; with T-47D (setting [4]), 1% of Control; in the assay on T-47D (setting [2]) it was 88% of Control; in the assay on NCI-H460 (setting [3]) it was 1% of Control; in the assay on NCI-H460 (setting [4]) it was 2% of Control; in the assay with NCI-H460 (setting [2]) it was 102% of Control. Moreover, the “calcium mobilization, Percent of Control” value was 2% of Control in the assay with SaOS-2 (setting [3]); 0% of Control with SaOS-2 (setting [4]); 71% of Control with SaOS-2 (setting [2]); 0% of Control in the assay on PANC-1 (setting [3]); 2% of Control with PANC-1 (setting [4]); 89% of Control in the assay with PANC-1 (setting [2]). The “calcium mobilization, Percent of Control” value with PC-3 (setting [3]) is 0% of Control; with PC-3 (setting [4]), 0% of Control; in the assay with PC-3 (setting [2]), 100% of Control; with NTera-2 (setting [3]) it was 1% of Control; in the assay on NTera-2 (setting [4]), 2% of Control; in the assay with NTera-2 (setting [2]) it was 72% of Control. Further, the “calcium mobilization, Percent of Control” value in the assay on Jurkat (setting [3]) was 52% of Control; with Jurkat (setting [4]), 2% of Control; in the assay with Jurkat (setting [2]) it was 52% of Control; in the assay on COLO320 (setting [3]), 5% of Control; in the assay with COLO320 (setting [4]) it was 2% of Control; with COLO320 (setting [2]) it was 73% of Control. The “effect on the response to ionomycin in T-47D cells” value in the assay with T-47D is “partially inhibit the response to ionomycin”. Also, the “effect on responses to bradykinin in SaOS-2 cells” value in the assay on SaOS-2 is “inhibits the responses”. In addition, the “effect on the response to ionomycin in NTera-2 cells” value with NTera-2 was “partially inhibit the response to ionomycin”. In the assay on HBL-100, the “effect on responses to bradykinin in HBL-100 cells” value is “inhibits the responses”. In the assay on panel of 10 cell lines (compared with chlorpheniramine), the “specificity as inhibitor of histamine signaling through the H1 receptor” value is reported as “less specific than chlorpheniramine”. Further, the “effect on calcium responses to histamine” value in the assay with panel of 10 cell lines is listed as “inhibit responses to histamine”.
